“Also recorded” adds a separate entry of the source.
Experiments:
[1] = system: B (CD19 positive) and T cells (CD3 positive); assay: Interaction propensity of B (CD19 positive) and T cells (CD3 positive) in PBMC monolayers; assay type: cell-based, human; settings: PBMC monolayers (healthy blood), 48 h, over PBS control (0)
Source text: FIG. 9: Measured interaction propensity expressed as Log 2 interaction score of CD3 cells to […] with increasing concentrations of the clinically approved biologic drug Blinatumomab, with media alone as a control (0). Blinatumomab has a known mechanism of action bringing together cytotoxic or other T-cells and cancerous B-cells, through this interaction, Inducing cancer cell killing and thus reducing the cancerous burden.
(§1) PBMC monolayers were provided as described in WO 2016/046346, treated with blinatumomab or PBS control (0) for 48 h, fixed, stained with fluorescently labeled CD3 and CD19 antibodies and imaged using automated confocal microscopy. Subsequently, the interaction propensity of B (CD19 positive) and T cells (CD3 positive) in the provided non-adherent cell monolayers was determined using the present invention.

[2] = system: B (CD19 positive) and NK cells (CD58 positive); assay: Interaction propensity of B (CD19 positive) and NK cells in PBMC monolayers; assay type: cell-based, human; settings: 48 h, over PBS control (0)
Source text: FIG. 11: Measured interaction propensity expressed as Log 2 interaction score of CD19 cells to CD56 cells with increasing concentrations of the clinically approved biologic drug Rituxidmab, with media alone as a control (0). Rituximab has a known mechanism of action bringing together NK-cells and cancerous B-cells, and through this interaction inducing cancer, reducing the cancerous burden.
as §1, with “rituximab” for “blinatumomab”, “CD56” for “CD3”, “NK” for “T”, “([…]” for “(CD3”

B and T cells = assay: Interaction propensity of B and T cells in combined bone marrow and PBMCs of B-ALL patients; assay type: cell-based, human; settings: B-ALL bone marrow plus PBMCs, vs PBS control
Source text: (§2) Bone marrow of a patients with B-cell acute lymphoblastic leukemia (B-ALL) and PBMCs of the same patient are combined, treated with blinatumomab or PBS control and the interaction propensity of B and T cells in non-adherent cell monolayers obtained from treated and untreated combined sample according to WO 2016/046346 determined using the present invention.

[3] = system: CD10+ positive target cells and CD3+ T-cells; assay: Interaction of CD10 positive tumour cells with T-cells in pleural effusion/PBMC monolayers of a B-cell lymphoma patient; assay type: cell-based, human
Procedure: FIG. 12: interactions between CD10+ positive target cells, which according to pathology review comprised the tumour cells, and CD3+ T-cells were measured in a sample of a B-cell lymphoma patient in response to blinatumomab treatment for 24 h using the methods of the present invention and quantified as an interaction score. […] The different graphs show different amounts of cells isolated from pleural effusion (PE) of the patient mixed with different amounts of matched PBMCs from the same patient.
Pleural effusion from a patient with a B-cell lymphoma was collected by gradient density centrifugation. This pleural effusion consisted of a mixture of cell types found in bone marrow and PBMCs having migrated to the pleural cavity with concomitant fluid build-up and contained cancer as well as healthy cells. A matched sample of blood was also purified over Lymphoprep gradient. Cells obtained from the pleural effusion were titrated against cells from the matched PBMC samples and monolayers prepared according to WO2016/046346. Monolayers were treated with different concentrations of blinatumomab and the interaction of tumour cell populations previously determined to be CD10 positive by a pathologist with effector T-cells determined using the methods described in the present invention.

B-cell lymphoma = assay: Clinical response of the B-cell lymphoma patient to treatment; assay type: in vivo, human; settings: one B-cell lymphoma patient given the drug
CD11C and CD3 cells = assay: Interaction propensity of CD11C and CD3 cells in PBMC monolayers of a healthy donor; assay type: cell-based, human; settings: PBMCs of a healthy donor, various concentrations, vs DMSO control
Procedure: FIG. 10: Measured interaction propensity expressed as Log 2 interaction score of CD11c and CD3 cells after treatment with the small molecule Crizotinib.
PBMCs of a healthy donor are treated with Crizotinib or DMSO control at various concentrations and the interaction propensity of CD11C and CD3 cells in non adherent cell monolayers obtained from treated and untreated combined sample according to WO 2016/046346 determined using the present invention.

B and NK cells = assay: Interaction propensity of B and NK cells in combined bone marrow and PBMCs of B-ALL patients; assay type: cell-based, human; settings: B-ALL bone marrow plus PBMCs, vs PBS control
Source text: as §2, with “Rituximab” for “blinatumomab”, “NK” for “T”

[4] = patients not responding clinically
[5] = patients responding to the drug

blinatumomab: bispecific antibody in BITE format that cross links B and T cells inducing T cells to kill B cells
interaction propensity between B and T cells [1]: increases | interaction propensity between B and T cells ([1]; listed as blinatomumab): increase | interaction propensity between B and NK cells [2]: increase | interaction propensity between B and T cells (B and T cells; [4]): do not exhibit this increase | interaction propensity between B and T cells (B and T cells; [5]): increase | fraction of tumour B-cells ([3]; B-cell lymphoma patient sample, ex vivo treatment): did not change significantly | interaction of CD10 positive tumour cells with effector T-cells (interaction score) ([3]; B-cell lymphoma patient, pleural effusion cells mixed with matched PBMCs, different concentrations, 24 h): this was not the case for this patient; also recorded: no such interaction change was observed | clinical response of the patient (B-cell lymphoma): not to respond; also recorded: transient and weak response

C[C@@H](Oc1cc(-c2cnn(C3CCNCC3)c2)cnc1N)c1c(Cl)ccc(F)c1Cl [Crizotinib]
interaction of DCs and T-cells as indicated by the interaction score (CD11C and CD3 cells): increase

Rituximab: anti-CD20 antibody that links B and NK cells, inducing NK cells to kill B cells
interaction propensity between B and NK cells (B and NK cells; [4]): do not exhibit this increase | interaction propensity between B and NK cells (B and NK cells; [5]): increase

Source: patent publication US20200064348A1, “METHODS FOR DETERMINING INTERACTION BETWEEN BIOLOGICAL CELLS” (CeMM - Forschungszentrum für Molekulare Medizin GmbH, priority 2017, published 2020)
